Holding throughout (format): cell-based
Test [1] has as its system RV122 cancer cells. In words: Optical fiber anti-cancer drug testing (RFP-level transmission, calcein profiling, image quantification). To be noted: for calcein activity profiling (slope of calcein conversion): RV122 cancer cells after culture with drug; for image quantification of native protein expression (RFP) and calcein metabolization: microscopy validation, RV122 cancer cells. As to the method:
(§1) To validate the possibility of light carrying information upon interaction with fluorescent molecules, 3T3 fibroblasts were stained with two model fluorescent markers of different wavelengths, namely Orange Cell Tracker CMRA and Calcein AM (Invitrogen) according to manufacturer's instructions. Briefly, 3T3 cells in suspension were incubated with each marker for 30 minutes under 37° C., washed with PBS, and introduced in the optical fiber core as described above. Fibers were then fabricated and aligned in the input-output setup as previously described the light source and spectrometer. Output spectra were collected and spectral ratios were obtained by dividing the spectra of fluorescent-tagged cell-laden fibers to those without fluorescent molecules, in order to confirm the presence of transmission dips in agreement with the marker's excitation curves. For performing calcein AM overtime metabolic tracking, 4 cm-long fibers with unstained cells were aligned in the optical readout setup, and 10 μL of a 1:100 Calcein AM solution in CaPBS was added dropwise along the optical fiber's length. The spectral output was then collected every minute for a total of 10 minutes after the beginning of the calcein AM metabolization. The 495 nm normalized transmission values were obtained by normalizing all spectral curves to their maximum and extracting the normalized intensity values as an average of the 493-495 nm window. These were then plotted overtime.
LNCaP, 22Rv1, and DU145 cells were purchased from the American Type Culture Collection (ATCC; Manassas, VA). All cell lines were authenticated through Stanford Functional Genomics Facility. FUCRW plasmid was a kind gift from Dr. Owen Witte's laboratory at University of California Los Angeles. 22Rv1 and DU145 cells were infected with FUCRW virus expressing red fluorescent protein (RFP). RFP signal was confirmed 72 hours post infection. LNCaP-RFP-Trop2-OV cells expressing RFP and Trop2 oncogene were generated as previously described ^43. All cells were cultured in RPMI medium supplemented with 10% FBS, 4 mM L-glutamine, and 1% penicillin/streptomycin.
(§2) Spectral fingerprinting tests with the different cell lines were performed by integrating them within optical hydrogel fibers as described in the previous section. Briefly, cancer cells were resuspended in the core material at a density of 10 M/mL and cultured in different conditions, namely control medium, 1.5 μM Cisplatin (Biovision) or 1 μM Staurosporine (Biovision). After 48 h of culture, the living optical fibers were washed twice with PBS to remove media remains that could interfere with optical readouts (e.g., Phenol Red). Before measurement, fibers were placed in a 1 mM CaCl2) solution to facilitate their manipulation and were then aligned in the optical characterization setup with spectrometer connection. RFP-level transmission readouts were immediately obtained from the first output collected, and calcein activity overtime was then tracked by the addition of calcein and spectral recording every minute for 10 minutes, as described in the previous section. […] Both RFP and calcein signals were analyzed in several pictures per replicate via Cell Profiler, in order to compare the relative post-incubation signal intensities to the relative decreases in fiber optics transmission at each specific wavelength instantly (RFP) and overtime (calcein).

Test [2] concerns LnCAP-RFP-Trop2-OV cancer cells. Kind of test: Digitalization and quantification of 3D cancer invasive proliferation in living optical fibers (output power, RFP-level transmission). On the procedure:
In order to evaluate the invasive proliferation of encapsulated cancer cells over time and quantify this response through optics upon exposure to different levels of the anti-proliferative drug cisplatin, the core material was modified by blending alginate with GelTrex (Growth-Factor Reduced Basement Membrane, Thermofisher) at a 50:50 ratio. Fibers with Cells were fabricated as described before with a 10 million/mL density and were cultured for 1 week to observe the cancer tissue development and the formation of fiberoid (fiber-shaped organoids) structures. To do so, fibers were incubated with Calcein AM 1:500 (Invitrogen) and Hoechst 33342 1:1000 (Thermo Scientific), washed with PBS and imaged under confocal microscope (Zeiss). As model cell line, we used the RFP-expressing LNCaP-RFP-Trop2-OV due to its aggressiveness and relevance in metastatic events. To then quantify the effect of cisplatin in the impedance of 3D tumor growth, fibers were cultured over a 5-days period under control conditions and increasing concentrations of cisplatin (1.5, 15 and 150 μM). After each time point, fibers were washed twice with CaPBS, briefly dipped in 1 mM CaCl2) and aligned in the optical characterization setup. Two types of immediate readouts were acquired: output power via powermeter reading and spectral response through spectrometer connection. Output power was directly used as an indicator of light attenuation induced by tumor growth and spectral data was processed to extract RFP-level transmission values, as plotted in the maintext. In parallel, fibers were also axially sectioned and imaged in confocal microscope for observing the distribution of cancer cells and aggregates within the fiber structure overtime and validate the fiber optics readouts.

The subject of test [3] is DU145 cells. Kind of test: Spectral fingerprinting (RFP-level transmission, real-time calcein AM metabolism) of cancer cells in living optical fibers. To be noted: DU145 cells in fiber core, 48 h culture, 1.5 μM cisplatin or 1 μM staurosporine. On the procedure:
as §1
LNCaP, 22Rv1, and DU145 cells were purchased from the American Type Culture Collection (ATCC; Manassas, VA). All cell lines were authenticated through Stanford Functional Genomics Facility. FUCRW plasmid was a kind gift from Dr. Owen Witte's laboratory at University of California Los Angeles. 22Rv1 and DU145 cells were infected with FUCRW virus expressing red fluorescent protein (RFP). RFP signal was confirmed 72 hours post infection. […]
as §2, with “Briefly, cancer cells were resuspended in the core material at a density of 10 M/mL and cultured in different conditions, namely control medium, 1.5 μM Cisplatin (Biovision) or 1 μM Staurosporine (Biovision).” left out, “Before measurement, fibers were placed in a 1 mM CaCl2) solution to facilitate their manipulation and were then aligned in the optical characterization setup with spectrometer connection.” left out

As for `N.N.[Cl][Pt][Cl]` [cisplatin], the “calcein activity profiling (slope of calcein conversion)” value in test [1] is “decrease in the slope”. Further, the “image quantification of native protein expression (RFP) and calcein metabolization” value in test [1] is listed as “moderate effect”. Also, the “RFP expression (RFP-level transmission)” value in test [2] (cisplatin 1.5 µM) was “some effect in the protein's expression by day 5”; in test [2] (cisplatin 15 μM), “noticeable effect after day 3”; in test [2] (cisplatin 150 μM, after 1 day of culture), “significant decrease in expression”; in test [3], “little impact”. Besides, the “cancer growth (optical fiber output power)” value in test [2] (cisplatin 1.5 μM, up to 5 days) is on record as “no significant impact”; in test [2] (cisplatin 15 μM, up to 5 days), “prevented considerable growth after 3 days”. In test [2] (cisplatin 150 μM, up to 5 days), the “cancer growth / invasive proliferation (optical fiber output power)” value is “efficiently inhibited the invasive proliferation”. Also, the “capacity of cells to metabolize calcein (calcein AM real-time profile)” value in test [3] is listed as “little impact”.
Consider `CN[C@@H]1C[C@H]2O[C@@](C)([C@@H]1OC)n1c3ccccc3c3c4c(c5c6ccccc6n2c5c31)C(=O)NC4` [staurosporine], for which, in test [1], the “calcein activity profiling (slope of calcein conversion)” value is “no longer possible to observe metabolic calcein conversion”; the “image quantification of native protein expression (RFP) and calcein metabolization” value is recorded as “more prominent effects”. Further, the “native fluorescence, RFP-level transmission” value in test [1] (RV122 cancer cells in fibers after drug exposure) is recorded as “significant decrease in fluorescent”. Further, in test [3], the “RFP expression (RFP-level transmission)” value is given as “significant reduction in RFP expression” and the “capacity of cells to metabolize calcein (calcein AM real-time profile)” value was “drastic inhibition”.
